US20180057505A1, “BICYCLIC HETEROARYL COMPOUNDS USEFUL AS INHIBITORS OF THE PAR-2 SIGNALING PATHWAY” (VERTEX PHARMACEUTICALS INCORPORATED, priority 2015, published 2018)
pIC50: −log10 of the molar value.

What was measured:
Format in all cases: cell-based
PAR2 (HT-29 cells) [1] = molecular target: T1, PAR2 (HT-29 cells) (Homo sapiens, UniProt P55085); experiment: Ca FLIPR TETRA assay, ANTAGONIST mode, activator 3.1 U/mL trypsin; conditions: HT-29 cells, activator 3.1 U/mL trypsin
T1 construct: host or cells: HT-29
T1 sequence (P55085 26-397): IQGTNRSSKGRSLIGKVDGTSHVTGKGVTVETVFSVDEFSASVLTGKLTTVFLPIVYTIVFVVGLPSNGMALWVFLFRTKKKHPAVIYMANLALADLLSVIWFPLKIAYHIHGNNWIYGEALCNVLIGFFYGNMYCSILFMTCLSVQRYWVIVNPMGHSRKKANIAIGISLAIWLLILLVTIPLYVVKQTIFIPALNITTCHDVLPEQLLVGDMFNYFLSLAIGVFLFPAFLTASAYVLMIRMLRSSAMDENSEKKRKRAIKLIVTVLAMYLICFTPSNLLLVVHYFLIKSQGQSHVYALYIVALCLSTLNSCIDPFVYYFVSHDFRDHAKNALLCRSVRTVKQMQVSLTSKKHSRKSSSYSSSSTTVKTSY
Protocol: (§1) Protocol for Testing PAR2 Compounds in ANTAGONIST Mode Using the Ca FLIPR^TETRA Assay (384 Well).
(§2) 23000 HT-29 cells (ATCC# HTB-38) were plated in 384-well black, transparent-flat bottom plates and incubated in 25 uL of 1% FBS/McCoy's media ON at 37° C. under an atmosphere of 5% CO2. The following day, 25 uL FLIPR calcium 5 Molecular Devices assay reagent (Cat: R-8186) was added. Plates were incubated at 37° C. and r. t. for 45 min and 15 min, respectively. Compounds dilutions were prepared in 100% DMSO using a Biomek FX and diluted 20-fold in HBSS and then 5.5 uL was added directly to the cells by the FLIPR^TETRA (10× dilution) using FLIPR Tetra Pipette tips, black, non-sterile, 384 Molecular Devices (Cat: 9000-0764).
(§3) A first read was performed to determine whether the test compounds on their own can activate Ca^2+ responses. The cells were incubated with the compounds for 30 min at r. t. and then read in ANTAGONIST mode in the same plate by stimulating with 6.2 uL of a fixed concentration of the activator: final concentrations 8 μM SLIGKV, 1 U/mL Thrombin, 3.1 U/mL trypsin, or 0.6 μM UTP.

[2] = test system: Thrombin-stimulated Ca2+ response in HT-29 cells; experiment: Ca FLIPR TETRA assay, ANTAGONIST mode, activator 1 U/mL Thrombin; conditions: for pIC50: HT-29 cells, activator 1 U/mL Thrombin
Protocol: as §1, §2, §3

PAR2 (HT-29 cells) [3] = molecular target: T1, PAR2 (HT-29 cells); experiment: Ca FLIPR TETRA assay, ANTAGONIST mode, activator 8 μM SLIGKV; conditions: HT-29 cells, activator 8 μM SLIGKV
Protocol: as §1, §2, §3

[4] = test system: UTP-stimulated Ca2+ response in HT-29 cells; experiment: Ca FLIPR TETRA assay, ANTAGONIST mode, activator 0.6 μM UTP; conditions: for pIC50 / inhibition at 50 µM: Homo sapiens; for pIC50: HT-29 cells, activator 0.6 μM UTP; for inhibition at 50 µM: HT-29
Protocol: as §1, §2, §3

[5] = maximal antagonist concentration per Method (A: 0.1, 1 or 2 μM; B: 50 μM)
[6] = Method A: maximal concentration of antagonist 0.1, 1 or 2 μM

Structure (SMILES)	pIC50 (PAR2 (HT-29 cells) [1]; [5])	pIC50 [2]	pIC50 (PAR2 (HT-29 cells) [3]; [5])	UTP, % @ 50 ([4]; @ 50 (μM))	pIC50 (PAR2 (HT-29 cells) [1]; [6])	pIC50 ([2]; Homo sapiens)	pIC50 (PAR2 (HT-29 cells) [3]; [6])	pIC50 [4]	inhibition at 50 µM ([4]; @ 50 (μM))	Thrombin, % @ 50 ([2]; @ 50 (μM))
CC(C)c1cc(-c2ccc(F)cc2)nc2cc(C(=O)N3CCN(C(=O)C4CC4(F)F)CC3(C)C)oc12 (single isomer, unassigned) [Example I-76]	7.00	< 4.30	7.48	56% @ 50						
CC(CC(=O)N1CCN(C(=O)c2cc3nc(-c4ccc(Cl)c(F)c4)cc(C(C)(C)C)c3o2)C(C)(C)C1)C(=O)O (single isomer, unassigned) [Example I-513]					8.77	< 5.70	8.92	< 5.70		
CC(CC(=O)N1CCN(C(=O)c2cc3nc(-c4ccc(Cl)c(F)c4)cc(C(C)(C)C)c3o2)C(C)(C)C1)C(=O)O (single isomer, unassigned) [Example I-514]		< 5.70			8.96		8.89			
CC(C)c1cc(-c2ccc(F)cc2)nc2cc(C(=O)N3CCN(C(=O)C(C)(C)O)CC3(C)C)oc12 [Example I-1]	7.19		7.17			4.72		4.70		
CC(C)(C)OC(=O)N1CCN(C(=O)c2cc3nc(-c4ccc(F)cc4)cc(Cl)c3o2)C(C)(C)C1 [Example I-2]	7.54		7.66			< 4.30		< 4.30		
Cc1cc(-c2ccc(F)cc2)nc2cc(C(=O)N3CCN(C(=O)C(C)(C)O)CC3(C)C)oc12 [Example I-3]	6.09		6.15			4.59		4.74		
CCc1cc(-c2ccc(F)cc2)nc2cc(C(=O)N3CCN(C(=O)C(C)(C)O)CC3(C)C)oc12 [Example I-4]	6.72		6.68			5.08		4.92		
CC(C)(O)C(=O)N1CCN(C(=O)c2cc3nc(-c4ccc(F)cc4)cc(C4CC4)c3o2)C(C)(C)C1 [Example I-5]	6.80		6.92			4.96		5.06		
CC(C)c1cc(-c2ccc(F)cc2)nc2cc(C(=O)N3CCN(C(=O)OC(C)(C)C)CC3(C)C)oc12 [Example I-6]	8.38		8.49			< 4.30		4.44		
CC(C)c1cc(-c2ccc(F)cc2)nc2cc(C(=O)N3CCNC(=O)C3(C)C)oc12 [Example I-7]	7.70		7.64			5.51		5.57		
CC(C)c1cc(-c2ccc(F)cc2)nc2cc(C(=O)N3CCN(C(=O)C4(O)CCC4)CC3(C)C)oc12 [Example I-8]	7.55		7.54			5.44		4.70		
CC(C)c1cc(-c2ccc(F)cc2)nc2cc(C(=O)N3CCN(C(=O)CC#N)CC3(C)C)oc12 [Example I-9]	7.08		7.05			5.02		5.35		
CC(C)c1cc(-c2ccc(F)cc2)nc2cc(C(=O)N3CCN(C(=O)C4CCCO4)CC3(C)C)oc12 (centres unmarked) [Example I-10]	7.57		7.64			4.82		4.80		
CC(C)c1cc(-c2ccc(F)cc2)nc2cc(C(=O)N3CCN(C(=O)c4ccccc4)CC3(C)C)oc12 [Example I-11]	8.46		8.62			5.85			59%	
CC(C)c1cc(-c2ccc(F)cc2)nc2cc(C(=O)N3CCN(C(=O)C(O)C(C)C)CC3(C)C)oc12 (centres unmarked) [Example I-12]	8.07		8.08			5.06		5.24		
CC(C)c1cc(-c2ccc(F)cc2)nc2cc(C(=O)N3CCN(C(=O)c4ccno4)CC3(C)C)oc12 [Example I-13]	8.35		8.52			6.00		5.92		
CC(C)c1cc(-c2ccc(F)cc2)nc2cc(C(=O)N3CCN(C(=O)C(C)(C)C)CC3(C)C)oc12 [Example I-14]	8.52		8.55						59%	57% @ 50
CC(C)c1cc(-c2ccc(F)cc2)nc2cc(C(=O)N3CCN(C(=O)[C@H](C)O)CC3(C)C)oc12 [Example I-15]	6.72		6.64			4.85		4.85		
CC(C)c1cc(-c2ccc(F)cc2)nc2cc(C(=O)N3CCN(C(=O)C(C)(C)F)CC3(C)C)oc12 [Example I-16]	8.17		8.14			5.16			61%	
COCC(=O)N1CCN(C(=O)c2cc3nc(-c4ccc(F)cc4)cc(C(C)C)c3o2)C(C)(C)C1 [Example I-17]	7.17		7.23			4.85		4.82		
CC(C)c1cc(-c2ccc(F)cc2)nc2cc(C(=O)N3CCN(C(=O)[C@H](O)CC(C)(C)C)CC3(C)C)oc12 [Example I-18]	8.96		8.85			5.10		4.77		
CC(C)c1cc(-c2ccc(F)cc2)nc2cc(C(=O)N3CCN(C(=O)C4(C)CC4)CC3(C)C)oc12 [Example I-19]	8.36		8.25			5.00		5.24		
CC#CC(=O)N1CCN(C(=O)c2cc3nc(-c4ccc(F)cc4)cc(C(C)C)c3o2)C(C)(C)C1 [Example I-20]	8.00		7.96			5.15		5.82		
CC(C)c1cc(-c2ccc(F)cc2)nc2cc(C(=O)N3CCN(C(=O)CC(C)(C)C)CC3(C)C)oc12 [Example I-21]	8.59		8.85			< 4.30			59%	
CC(C)c1cc(-c2ccc(F)cc2)nc2cc(C(=O)N3CCN(C(=O)C4CC4(C)C)CC3(C)C)oc12 (centres unmarked) [Example I-22]	8.70		8.62			< 4.30			64%	
CC(C)(C)c1cc(-c2ccc(Cl)cc2)nc2cc(C(=O)N3CCNC(=O)C3(C)C)oc12 [Example I-157]	8.10		8.04							
CC(C)(C)c1cc(-c2ccc(Cl)c(F)c2)nc2cc(C(=O)N3CCNC(=O)C3(C)C)oc12 [Example I-176]	8.30		8.32							
CC(C)(C)c1cc(-c2ccc(Cl)c(F)c2)nc2cc(C(=O)N3CCN(c4nc(C(=O)O)co4)CC3(C)C)oc12 [Example I-290]	8.21		8.49							
CC(C)(C)c1cc(-c2ccc(Cl)cc2)nc2cc(C(=O)N3CCN(c4cnccn4)CC3(C)C)oc12 [Example I-368]					8.02		7.92			
